Assay [1] deals with human histiocytic lymphoma cell line U-937 cells. Kind of assay: Proliferation inhibition, U-937 cells (CellTiter-Glo). In kind it is cell-based. The note with it: U-937, 72 h, 3 days culture. The method, then:
U-937 is a cell line originated from human histiocytic lymphoma and the BTK expression has been confirmed (J. Immunol. 1994; 152(2):557-565). The human histiocytic lymphoma cell line U-937 cells (Sumitomo Dainippon Pharma Co., Ltd.) cultured in RPMI1640 medium (Sigma) containing 10% bovine serum were seeded into 96 well plates. On the same day, DMSO solutions of the test compound B at a final concentrations from 1 nM to 10 μM or only DMSO (DMSO group) were added thereto to culture the cells at 37° C. in 5% CO2 for 3 days. Thereafter, the cell number was measured using a cell counting reagent (CellTiter-Glo (registered trademark) Luminescent Cell Viability Assay (Promega)). The cell proliferation inhibition rate was calculated as the measured value in the DMSO group set as 0% inhibition and the measured value in the well only with the medium on which the cells have not been seeded set as 100% inhibition.
For orientation: In ATP-based viability assays light output follows the ATP content of the culture.

The next assay has as its target T1, ITK kinase (Homo sapiens, UniProt Q08881).
T1 sequence (Q08881 1-620): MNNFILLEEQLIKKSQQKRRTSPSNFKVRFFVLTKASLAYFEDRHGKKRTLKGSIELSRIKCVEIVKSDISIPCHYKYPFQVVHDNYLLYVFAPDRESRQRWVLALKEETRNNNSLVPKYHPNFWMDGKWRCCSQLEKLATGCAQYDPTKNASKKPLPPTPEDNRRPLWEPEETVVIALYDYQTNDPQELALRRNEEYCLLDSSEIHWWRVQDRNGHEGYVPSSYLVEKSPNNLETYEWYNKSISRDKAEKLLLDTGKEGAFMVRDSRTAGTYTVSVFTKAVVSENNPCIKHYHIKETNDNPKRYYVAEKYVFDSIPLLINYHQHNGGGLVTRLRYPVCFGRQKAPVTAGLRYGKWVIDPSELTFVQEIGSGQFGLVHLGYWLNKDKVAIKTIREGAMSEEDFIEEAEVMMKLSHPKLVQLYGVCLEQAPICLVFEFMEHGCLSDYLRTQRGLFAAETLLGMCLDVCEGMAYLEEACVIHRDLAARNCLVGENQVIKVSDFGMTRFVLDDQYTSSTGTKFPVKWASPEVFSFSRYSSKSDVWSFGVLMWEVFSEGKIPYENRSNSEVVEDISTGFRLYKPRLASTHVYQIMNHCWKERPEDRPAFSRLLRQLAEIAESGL
Kind of assay: ITK kinase inhibitory activity (Mobility Shift Assay). The class given is biochemical. The note with it: ATP 1000 μM, read-out: inhibitory % against ITK kinase activity. The method, then:
The ITK kinase inhibitory activity was evaluated using Mobility Shift Assay system.
The test compound B was dissolved in dimethyl sulfoxide (DMSO) to prepare a solution at a 100-fold concentration as compared to the test concentration. The solution was also 25-fold diluted with an assay buffer (20 mM HEPES, 0.01% Triton X-100, 1 mM DTT, pH 7.5) to obtain a test substance solution.
5 μL of the test compound B solution at a 4-fold concentration, prepared using the aforementioned assay buffer, and 10 μL of a ITK kinase solution at a 2-fold concentration were mixed within a well of a 384 well plate, and incubated at room temperature for 30 minutes. Continuously, 5 μL of a substrate peptide (Srctide, PEPTIDE INSTITUTE, INC. #AD-995)/ATP/MgCl2 solution at a 4-fold concentration was added thereto to perform the reaction at room temperature for 1 hour. The substrate peptide was used at a final concentration of 1000 nM, ATP at a final concentration of 1000 μM, and MgCl2 at a final concentration of 5 mM. Thereafter, 60 μL of a termination buffer (127 mM HEPES, 0.01% Triton X-100, 26.7 mM EDTA, 1% DMSO, pH 7.5) was added thereto to stop the reaction. The ITK kinase activity was calculated by quantifying a product conversion ratio obtained from the substrate peptide peak height and the product (phosphorylated substrate peptide) peak height with LabChip3000 (PerkinElmer). […]

Assay [2] relates to human acute T cell lymphoma cell line Jurkat 6.1E cells. Kind of assay: Proliferation inhibition, Jurkat 6.1E cells (CellTiter-Glo). The class given is cell-based. The following applies: 96 h, 4 days culture. The method, then:
Jurkat 6.1E is a cell line originated from human acute T cell lymphoma and the ITK expression has been confirmed (Mol. Pharmacol. 2012; 82:938-947). The human acute T cell lymphoma cell line Jurkat 6.1E cells (European Collection of Cell Cultures, 88042803) cultured in RPMI1640 medium (Sigma) containing 10% bovine serum were seeded into 96 well plates. On the same day, DMSO solutions of the test compound B at a final concentrations from 1 nM to 10 μM or only DMSO (DMSO group) were added thereto to culture the cells at 37° C. in 5% CO2 for 4 days. Thereafter, the cell number was measured using a cell counting reagent (CellTiter-Glo (registered trademark) Luminescent Cell Viability Assay (Promega)). The cell proliferation inhibition rate was calculated as the measured value in the DMSO group set as 0% inhibition and the measured value in the well only with the medium on which the cells have not been inoculated set 100% inhibition.

Assay [3] relates to human mantle cell lymphoma cell line Rec-1 cells. Put plainly: Proliferation inhibition, Rec-1 cells (CellTiter-Glo). In kind it is cell-based. The note with it: Rec1, 72 h, 3 days culture. The method, then: Rec-1 is a cell line originated from human mantle cell lymphoma, a kind of B-cell malignant neoplasm, and the BTK expression and phosphorylation have been confirmed (Cell Oncol. 2011; 34:141-153). The human mantle cell lymphoma cell line Rec-1 cells (American Type Culture Collection, CRL-3004) cultured in RPMI1640 medium (Sigma) containing 10% bovine serum were seeded into 96 well plates. On the next day, DMSO solutions of the test compound B at final concentrations from 1 nM to 10 μM or only DMSO (DMSO group) were added thereto to culture the cells at 37° C. in 5% CO2 for 3 days. Thereafter, the cell number was measured using a cell counting reagent (CellTiter-Glo (registered trademark) Luminescent Cell Viability Assay (Promega)). The cell proliferation inhibition rate was calculated as the measured value in the DMSO group set as 0% inhibition and the measured value in the well only with the medium on which the cells have not been seeded set as 100% inhibition.

We go through one compound from patent publication US20170196859A1, “PHARMACEUTICAL COMPOSITION COMPRISING PYRAZINE CARBOXAMIDE COMPOUND AS ACTIVE INGREDIENT” (Astellas Pharma Inc., priority 2014, published 2017).

For `C=CC(=O)N1CC[C@@H](Oc2nc(Nc3ccc(N4CCC(N5CCN(C)CC5)CC4)cc3)c(C(N)=O)nc2CC)C1` [test compound B, 5-{[(3R)-1-acryloylpyrrolidin-3-yl]oxy}-6-ethyl-3-({4-[4-(4-methylpiperazin-1-yl)piperidin-1-yl]phenyl}amino)pyrazine-2-carboxamide monomethanesulfonate], the results for the IC50 in assay [1], in assay [2] and in assay [3] were 63 nM, 940 nM and 68 nM, respectively. For the same compound, on ITK kinase (1 nM test compound), the inhibition at 0.001 µM was 29.5%. Further, the inhibition at 0.01 µM on ITK kinase (10 nM test compound) worked out at 92.6%.
